This test has as its target T1, rat NPRA (Rattus norvegicus, UniProt P18910).
T1 construct: Full-Length cDNA Cloning and Generation of Cell Lines Overexpressing Natriuretic Peptide Receptors (NPRs); expressed in transfected cells; host or cells: Jump-in T-Rex HEK293 cells, pJTI R4 CMV-TO MCS pA vector, tetracycline induction
T1 sequence (P18910 29-1057): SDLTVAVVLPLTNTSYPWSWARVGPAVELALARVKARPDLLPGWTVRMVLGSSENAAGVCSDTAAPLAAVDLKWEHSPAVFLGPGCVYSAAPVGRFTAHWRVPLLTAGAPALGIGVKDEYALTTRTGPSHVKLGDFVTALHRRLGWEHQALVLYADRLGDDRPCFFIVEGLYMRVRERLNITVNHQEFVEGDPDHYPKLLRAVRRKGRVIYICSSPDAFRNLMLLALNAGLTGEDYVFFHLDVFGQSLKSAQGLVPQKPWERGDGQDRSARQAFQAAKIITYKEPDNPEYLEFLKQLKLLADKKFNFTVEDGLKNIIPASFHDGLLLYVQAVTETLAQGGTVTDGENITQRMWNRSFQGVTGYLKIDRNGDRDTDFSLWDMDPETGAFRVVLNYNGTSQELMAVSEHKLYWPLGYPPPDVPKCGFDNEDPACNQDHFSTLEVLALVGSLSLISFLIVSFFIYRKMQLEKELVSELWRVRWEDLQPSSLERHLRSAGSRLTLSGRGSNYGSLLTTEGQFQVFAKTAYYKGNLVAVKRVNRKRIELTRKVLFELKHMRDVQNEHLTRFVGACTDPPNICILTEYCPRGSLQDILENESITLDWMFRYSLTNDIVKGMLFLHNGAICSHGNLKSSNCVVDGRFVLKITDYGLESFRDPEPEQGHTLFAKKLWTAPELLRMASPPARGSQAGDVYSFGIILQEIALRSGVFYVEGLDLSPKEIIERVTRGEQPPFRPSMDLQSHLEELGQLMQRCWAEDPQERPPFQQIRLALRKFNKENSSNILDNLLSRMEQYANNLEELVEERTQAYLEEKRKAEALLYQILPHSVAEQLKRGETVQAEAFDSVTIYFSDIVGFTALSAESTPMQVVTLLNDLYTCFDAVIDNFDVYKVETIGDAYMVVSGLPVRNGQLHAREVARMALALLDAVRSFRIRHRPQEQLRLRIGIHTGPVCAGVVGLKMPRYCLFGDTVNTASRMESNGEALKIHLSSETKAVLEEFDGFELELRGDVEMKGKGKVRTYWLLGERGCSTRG
The experiment in a line: Rat NPRA cGMP activity assay (HTRF) in HEK293 cells overexpressing NPRA. The class given is cell-based. In outline: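 cGMP measured by HTRF and scaled between buffer (minimum) and 100 nM amidated rat ANP (maximum). Polypeptides in 10-fold steps from 10 μM to 1 pM, 0.5% DMSO, 0.5 mM IBMX, 40 min at room temperature, on induced NPRA-overexpressing HEK293 cells.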
On the technique in general: TR-FRET usually uses a lanthanide donor and a delayed reading to cut background.

Where [1] appears, read: assay buffer with 0.1% casein, read-out: cGMP Assay (EC50, pM) w/Casein rNPRA.
The mark [2] stands for this setting: cGMP Assay (EC50, pM) w/BSA rNPRA, assay buffer with 0.1% BSA.
The mark [3] stands for this setting: cGMP Assay (EC50, pM) w/Casein rNPRA, assay buffer with 0.1% casein.
Where [4] appears, read: assay buffer with 0.1% BSA, read-out: cGMP Assay (EC50, pM) w/BSA rNPRA.

The results in this text go back to patent US20240174727A1, “LONG-ACTING NATRIURETIC PEPTIDES AND USES THEREOF” (Eli Lilly and Company, priority 2022, published 2024).

Like-named read-outs stand apart in the source and are kept apart here. Numbered stars: 1 amine (or outer) side, 2 acyl side, 3 side chain; on linkers, the order of the positions; unused ones are H or OH. Bridge positions count the residues as written; N and C are the ends. Square brackets hold non-standard residues; d marks the D form. Peptide text beside a SMILES is read from it. * marks the point of attachment. PEG24 = NCCOCCOCCOCCOCCOCCOCCOCCOCCOCCOCCOCCOCCOCCOCCOCCOCCOCCOCCOCCOCCOCCOCCOCCOCCC(=O)O; C20 diacid = O=C(O)CCCCCCCCCCCCCCCCCCC(=O)*; γGlu = O=C(O)[C@H](CCC(=O)[*:2])N[*:1]; 4Pal = N[C@@H](Cc1ccncc1)C(=O)O; Dap = NC[C@H](N)C(=O)O; CH2 = C([*:1])[*:2]; βAla = NCCC(=O)O

For `CC[C@H](C)[C@@H]1NC(=O)[C@H](CCCNC(=N)N)NC(=O)[C@H](CC(=O)O)NC(=O)[C@H]([C@@H](C)CC)NC(=O)[C@H](CCCNC(=N)N)NC(=O)CNC(=O)CNC(=O)[C@H](Cc2ccccc2)NC(=O)[C@@H](NC(=O)[C@H](CO)NC(=O)[C@H](CO)NC(=O)[C@H](CCCNC(=N)N)NC(=O)[C@H](CCCNC(=N)N)NC(=O)[C@H](Cc2ccncc2)NC(=O)[C@H](CO)NC(=O)COCCOCCNC(=O)COCCOCCNC(=O)COCCOCCNC(=O)COCCOCCNC(=O)COCCOCCNC(=O)COCCOCCNC(=O)CNC(=O)[C@H](CCCCN)NC(=O)[C@H](CCC(=O)O)NC(=O)[C@H](CCCCN)NC(=O)[C@H](CCC(=O)O)NC(=O)[C@H](CCCCN)NC(=O)[C@H](CCC(=O)O)NC(=O)CC[C@H](NC(=O)CCCCCCCCCCCCCCCCCCC(=O)O)C(=O)O)CSCSC[C@@H](C(=O)N2CCC[C@H]2C(=O)N[C@@H](CO)C(=O)N[C@@H](Cc2ccccc2)C(=O)N[C@@H](CCCNC(=N)N)C(=O)N[C@@H](Cc2c[nH]cn2)C(=O)NCC(=O)NCC(=O)N[C@@H](CCCCN)C(=O)N[C@@H](CO)C(=O)N[C@@H](CO)C(=O)NCC(=O)N[C@@H](C)C(=O)N2CCC[C@H]2C(=O)N2CCC[C@H]2C(=O)N2CCC[C@H]2C(=O)N[C@@H](CO)C(N)=O)NC(=O)CNC(=O)[C@H](CC(C)C)NC(=O)CNC(=O)[C@H](CO)NC(=O)[C@H](CCC(N)=O)NC(=O)[C@H](Cc2c[nH]cn2)NC(=O)CNC1=O` [Example 86], the EC50 under setting [1] worked out at 17900 pM.

“{C20 diacid-γGlu}-EKEKEKG[PEG24]S[4Pal]RRSSCFGGRIDRIGHQSGLGCPSFRHGGPSSGAPPPS-NH2 (linker 15-31 via CH2) [Example 61]” showed an EC50 under setting [2] of 463000 pM. Under setting [2], `CC[C@H](C)[C@@H]1NC(=O)[C@H](CCCNC(=N)N)NC(=O)[C@H](CC(=O)O)NC(=O)[C@H]([C@@H](C)CC)NC(=O)[C@H](CCCNC(=N)N)NC(=O)CNC(=O)CNC(=O)[C@H](Cc2ccccc2)NC(=O)[C@@H](NC(=O)[C@H](CO)NC(=O)[C@H](CO)NC(=O)[C@H](CCCNC(=N)N)NC(=O)CCNC(=O)[C@H](CCC(=O)O)NC(=O)[C@H](CCCCN)NC(=O)CNC(=O)[C@H](CCCCN)NC(=O)[C@H](CCC(=O)O)NC(=O)[C@H](CCCCN)NC(=O)[C@H](CCC(=O)O)NC(=O)[C@H](CCCCN)NC(=O)[C@H](CCC(=O)O)NC(=O)CC[C@H](NC(=O)CCCCCCCCCCCCCCCCCCC(=O)O)C(=O)O)CSCSC[C@@H](C(=O)N2CCC[C@H]2C(=O)N[C@@H](CO)C(=O)N[C@@H](Cc2ccccc2)C(=O)N[C@@H](CCCNC(=N)N)C(=O)N[C@@H](Cc2c[nH]cn2)C(=O)NCC(=O)NCC(=O)N2CCC[C@H]2C(=O)N[C@@H](CO)C(=O)N[C@@H](CO)C(=O)NCC(=O)N[C@@H](C)C(=O)N2CCC[C@H]2C(=O)N2CCC[C@H]2C(=O)N2CCC[C@H]2C(=O)N[C@@H](CO)C(N)=O)NC(=O)CNC(=O)[C@H](CC(C)C)NC(=O)CNC(=O)[C@H](CO)NC(=O)[C@H](Cc2ccc(O)cc2)NC(=O)[C@H](Cc2c[nH]cn2)NC(=O)CNC1=O` [Example 58] yielded an EC50 of 1.38e+06 pM.

Molecule “{C20 diacid-γGlu}-EKEKEKGS[4Pal]RRSSCFGGRIGRIGHQSGLGCPSFRHGGPSSGAPPPS-NH2 (disulfide 14-30) [Example 29]” registered an EC50 under setting [3] of 16800 pM. On to `CC[C@H](C)[C@@H]1NC(=O)[C@H](CCCNC(=N)N)NC(=O)[C@H](CC(=O)O)NC(=O)[C@H]([C@@H](C)CC)NC(=O)[C@H](CCCNC(=N)N)NC(=O)[C@H](CCCCN)NC(=O)CNC(=O)[C@H](Cc2ccccc2)NC(=O)[C@@H](NC(=O)[C@H](CO)NC(=O)[C@H](CO)NC(=O)[C@H](CCCNC(=N)N)NC(=O)CCNC(=O)[C@H](CCCCN)NC(=O)[C@H](CCC(=O)O)NC(=O)CCOCCOCCOCCOCCOCCOCCOCCOCCOCCOCCOCCOCCOCCOCCOCCOCCOCCOCCOCCOCCOCCOCCOCCOCCNC(=O)CNC(=O)[C@H](CCCCN)NC(=O)[C@H](CCC(=O)O)NC(=O)[C@H](CCCCN)NC(=O)[C@H](CCC(=O)O)NC(=O)[C@H](CCCCN)NC(=O)[C@H](CCC(=O)O)NC(=O)CC[C@H](NC(=O)CCCCCCCCCCCCCCCCCCC(=O)O)C(=O)O)CSCSC[C@@H](C(=O)N2CCC[C@H]2C(=O)N[C@@H](CO)C(=O)N[C@@H](Cc2ccccc2)C(=O)N[C@@H](CCCNC(=N)N)C(=O)N[C@@H](Cc2c[nH]cn2)C(=O)NCC(=O)NCC(=O)N2CCC[C@H]2C(N)=O)NC(=O)CNC(=O)[C@H](CC(C)C)NC(=O)CNC(=O)[C@H](CO)NC(=O)[C@H](CCC(N)=O)NC(=O)[C@H](Cc2c[nH]cn2)NC(=O)CNC1=O` [Example 130] ({C20 diacid-γGlu}-EKEKEKG[PEG24]EK[βAla]RSSCFGKRIDRIGHQSGLGCPSFRHGGP-NH2; linker 15-31 via CH2), for which the EC50 runs as follows: under setting [4], 197000 pM; under setting [1], 9170 pM. Regarding `CC[C@H](C)[C@@H]1NC(=O)[C@H](CCCNC(=N)N)NC(=O)[C@H](CC(=O)O)NC(=O)[C@H]([C@@H](C)CC)NC(=O)[C@H](CCCNC(=N)N)NC(=O)[C@H](CCCCN)NC(=O)CNC(=O)[C@H](Cc2ccccc2)NC(=O)[C@@H](NC(=O)[C@H](CO)NC(=O)[C@H](CO)NC(=O)[C@H](CCCNC(=N)N)NC(=O)CCNC(=O)[C@H](CCCCN)NC(=O)[C@H](CCC(=O)O)NC(=O)COCCOCCNC(=O)COCCOCCNC(=O)COCCOCCNC(=O)COCCOCCNC(=O)COCCOCCNC(=O)COCCOCCNC(=O)CNC(=O)[C@H](CCCCN)NC(=O)[C@H](CCC(=O)O)NC(=O)[C@H](CCCCN)NC(=O)[C@H](CCC(=O)O)NC(=O)[C@H](CCCCN)NC(=O)[C@H](CCC(=O)O)NC(=O)CC[C@H](NC(=O)CCCCCCCCCCCCCCCCCCC(=O)O)C(=O)O)CSCSC[C@@H](C(=O)N2CCC[C@H]2C(=O)N[C@@H](CO)C(=O)N[C@@H](Cc2ccccc2)C(=O)N[C@@H](CCCNC(=N)N)C(=O)N[C@@H](Cc2c[nH]cn2)C(=O)NCC(=O)NCC(=O)N[C@@H](CCCCN)C(=O)N[C@@H](CO)C(=O)N[C@@H](CO)C(=O)NCC(=O)N[C@@H](C)C(=O)N2CCC[C@H]2C(=O)N2CCC[C@H]2C(=O)N2CCC[C@H]2C(=O)N[C@@H](CO)C(N)=O)NC(=O)CNC(=O)[C@H](CC(C)C)NC(=O)CNC(=O)[C@H](CO)NC(=O)[C@H](CCC(N)=O)NC(=O)[C@H](Cc2c[nH]cn2)NC(=O)CNC1=O` [Example 89], under setting [1], the EC50 came to 13800 pM. For the molecule “{C20 diacid-γGlu}-EKEKEKGEKPRSSCFG[Dap]RIDRIGHQSGLGCPSFRHGSPSSGAPPPS-NH2 (linker 14-30 via CH2) [Example 137]”, the EC50 is, setting by setting: under setting [4], 2.19e+06 pM; under setting [1], 76900 pM.

For the molecule “{C20 diacid-γGlu}-EKEKEKGEKPRSSCFG[Dap]RIDRIGHYSGLGCPSFRHGSPSSGAPPPS-NH2 (linker 14-30 via CH2) [Example 136]”, the EC50 worked out at 2.43e+06 pM under setting [4] and 32900 pM under setting [1].

`CC[C@H](C)[C@@H]1NC(=O)[C@H](CCCNC(=N)N)NC(=O)[C@H](CC(=O)O)NC(=O)[C@H]([C@@H](C)CC)NC(=O)[C@H](CCCNC(=N)N)NC(=O)CNC(=O)CNC(=O)[C@H](Cc2ccccc2)NC(=O)[C@@H](NC(=O)[C@H](CO)NC(=O)[C@H](CO)NC(=O)[C@H](CCCNC(=N)N)NC(=O)CCNC(=O)[C@H](CCCCN)NC(=O)[C@H](CCC(=O)O)NC(=O)CNC(=O)[C@H](CCCCN)NC(=O)[C@H](CCC(=O)O)NC(=O)[C@H](CCCCN)NC(=O)[C@H](CCC(=O)O)NC(=O)[C@H](CCCCN)NC(=O)[C@H](CCC(=O)O)NC(=O)CC[C@H](NC(=O)CCCCCCCCCCCCCCCCCCC(=O)O)C(=O)O)CSCSC[C@@H](C(=O)N2CCC[C@H]2C(=O)N[C@@H](CO)C(=O)N[C@@H](Cc2ccccc2)C(=O)N[C@@H](CCCNC(=N)N)C(=O)N[C@@H](Cc2c[nH]cn2)C(=O)NCC(=O)NCC(=O)N2CCC[C@H]2C(=O)N[C@@H](CO)C(=O)N[C@@H](CO)C(=O)NCC(=O)N[C@@H](C)C(=O)N2CCC[C@H]2C(=O)N2CCC[C@H]2C(=O)N2CCC[C@H]2C(=O)N[C@@H](CO)C(N)=O)NC(=O)CNC(=O)[C@H](CC(C)C)NC(=O)CNC(=O)[C@H](CO)NC(=O)[C@H](Cc2ccc(O)cc2)NC(=O)[C@H](Cc2c[nH]cn2)NC(=O)CNC1=O` [Example 56]: the EC50 was 1.38e+06 pM under setting [2] and 11200 pM under setting [3].
